Article PMC7143578, “Terpenoids from the Deep-Sea-Derived Fungus Penicillium thomii YPGA3 and Their Bioactivities” (Marine Drugs, 2020)

Legend:
[1] = Cytotoxicity toward MCF-7 breast carcinoma cells; assay type: cell-based; design: concentration or dose not given beside the values; details: human, read-out: cytotoxicity (%) toward MCF-7 (cell viability)
[2] = Cytotoxicity toward MDA-MB-468 breast carcinoma cells; assay type: cell-based, human; design: viability: concentration or dose not given beside the values; details: human, MDA-MB-468 breast carcinoma cells; read-out: cytotoxicity (%) toward MDA-MB-468 (cell viability)
MDA-MB-468 cells = assay: as above; assay type: cell-based, human; design: viability: concentration or dose not given beside the values; details: Homo sapiens, MDA-MB-468
[3] = MTT cell viability of RAW 264.7 macrophages; assay type: cell-based; details: mouse, LPS-activated RAW 264.7 macrophages, MTT assay, read-out: cytotoxicity (%) toward RAW 264.7 (cell viability)
Description: (§1) The isolated compounds were also evaluated for their inhibitory effects against NO production in LPS-activated RAW 264.7 macrophages at the concentration of 50 μM following the same procedures in our previous study. The cell viability was further determined by the MTT assay to evaluate whether the inhibition on NO production was owing to the cytotoxicity.

RAW 264.7 cells = assay: MTT cell viability of RAW 264.7 macrophages; assay type: cell-based; details: MTT assay, 50 μM
Description: as §1

[4] = tested on: NO production in LPS-activated RAW 264.7 macrophages; assay: Inhibition of NO production in LPS-activated RAW 264.7 macrophages; assay type: cell-based; details: Mus musculus, RAW264.7, 50 μM, read-out: Inhibitions (%) on NO production
Description: as §1

[5] = tested on: α-glucosidase from Saccharomyces cerevisiae; assay: α-glucosidase inhibition assay (PNPG substrate); assay type: biochemical; details: for inhibition of α-glucosidase: initial concentration of 1 mM; for IC50: three replicates, read-out: IC50 against α-glucosidase
Description: The α-glucosidase inhibitory effect was assessed as follows. First, 0.2 U of α-glucosidase from Saccharomyces cerevisiae was purchased from Sigma-Aldrich (St. Louis, MO, USA), and was diluted in a 0.067 M phosphate buffer consisting of Na2HPO4·12H2O and KH2PO4 (pH 6.8). The assay was conducted in a 60 μL reaction system containing 20 μL of diluted enzyme solution, and 20μL of dimethyl sulfoxide (DMSO) or sample (dissolved in DMSO). […] The plate was incubated for an additional 20 min at 37 °C, and the reaction was quenched by adding 60 μL of 0.2 M Na2CO3. The final concentrations of tested compounds were between 0.2 and 2 mM. The optical density (OD) was measured at an absorbance wavelength of 405 nm using a Microplate Reader (Tecan, Mannedorf, Switzerland).

## COC(=O)CCC1(C)C(C(C)(C)O)CCC2(C)Oc3c(C)c4c(c(O)c3CC21)C(=O)OC4 (stereo not shown) [Compound 1, austalide Y]
[1]
  viability: 104%
[2]
  viability: 31.6%
MDA-MB-468 cells
  IC50: 38.9 ± 1.83 µM
[3]
  viability at 50 µM: 33.1%
RAW 264.7 cells
  cytotoxicity (%) toward RAW 264.7 (cell viability): obvious cytotoxic effects

## COC(=O)CC[C@]1(C)[C@H]2Cc3c(c(C)c4c(c3OC)C(=O)OC4)O[C@@]2(C)CC[C@H]1C(C)(C)O [Compound 2, austalide P]
[1]
  viability: 117%
[2]
  viability: 78.2%
[3]
  viability at 50 µM: 46.2%
RAW 264.7 cells
  cytotoxicity (%) toward RAW 264.7 (cell viability): obvious cytotoxic effects
[4]
  inhibition at 50 µM: > 50%
[5]
  inhibition of α-glucosidase: more than 50%
  IC50: 910 ± 4 µM

## COC(=O)CC[C@]1(C)[C@H]2Cc3c(c(C)c4c(c3OC)C(=O)OC4)O[C@@]2(C)C[C@@H](O)[C@H]1C(C)(C)O [Compound 3, austalide H]
[1]
  viability: 84.7%
[2]
  viability: 87.2%
[3]
  viability at 50 µM: 60.9%
[4]
  inhibition at 50 µM: -9.91%

## COc1c2c(c(C)c3c1C(=O)OC3)O[C@@]1(C)CC[C@@H](C(C)(C)O)[C@](C)(CCC(=O)O)[C@H]1C2 [Compound 4, austalide P acid]
[1]
  viability: 82.4%
[2]
  viability: 92.6%
[3]
  viability at 50 µM: 97.4%
[4]
  inhibition at 50 µM: 5.29%

## COc1c2c(c(C)c3c1C(=O)OC3)O[C@@]1(C)C[C@@H](O)[C@@H](C(C)(C)O)[C@](C)(CCC(=O)O)[C@H]1C2 [Compound 5, austalide H acid]
[1]
  viability: 69.1%
[2]
  viability: 87.3%
[3]
  viability at 50 µM: 104%
[4]
  inhibition at 50 µM: 12.1%

## COc1c2c(c(C)c3c1C(=O)OC3)OC1(C)CC(O)C34OC(O)(CCC3(C)C1C2)OC4(C)C (stereo not shown) [Compound 6, 17-O-demethylaustalide B]
[1]
  viability: 73.8%
[2]
  viability: 92.3%
[3]
  viability at 50 µM: 74.6%
[4]
  inhibition at 50 µM: -3.74%

## C=C(C)[C@@H]1[C@H](O)C[C@]2(C)Oc3c(C)c4c(c(OC)c3C[C@@H]2[C@@]1(C)CCC(=O)O)C(=O)OC4 [Compound 7, austalide Q acid]
[1]
  viability: 74.8%
[2]
  viability: 91.1%
[3]
  viability at 50 µM: 80.8%
[4]
  inhibition at 50 µM: -3.08%

## C=C(C)[C@@H]1CC[C@]2(C)Oc3c(C)c4c(c(OC)c3C[C@@H]2[C@@]1(C)CCC(=O)O)C(=O)OC4 [Compound 8, 13-deoxyaustalide Q acid]
[1]
  viability: 76.3%
[2]
  viability: 79.3%
[3]
  viability at 50 µM: 53.5%
[4]
  inhibition at 50 µM: 24%

## C=C1CCC2C(C)(CCC(O)C2(C)C(=O)O)C1CCC(C)=CC(=O)O (stereo not drawn) [Compound 9, 3β-hydroxy-agathic acid]
[1]
  viability: 88.8%
[2]
  viability: 92.1%
[3]
  viability at 50 µM: 83.3%
[4]
  inhibition at 50 µM: 7.81%
[5]
  inhibition of α-glucosidase: low inhibition

## C=C1CCC2C(C)(CCC(OC(C)=O)C2(C)C(=O)O)C1CCC(C)=CC(=O)O (stereo not drawn) [Compound 10, 3β-acetoxy-agathic acid]
[1]
  viability: 90%
[2]
  viability: 94.5%
[3]
  viability at 50 µM: 58.4%
RAW 264.7 cells
  cytotoxicity (%) toward RAW 264.7 (cell viability): obvious cytotoxic effects
[5]
  inhibition of α-glucosidase: low inhibition

## C=C1CC[C@@H]2[C@](C)(CCC[C@]2(C)C(=O)O)[C@H]1CC/C(C)=C/C(=O)O [Compound 11, agathic acid]
[1]
  viability: 83.5%
[2]
  viability: 89.3%
[3]
  viability at 50 µM: 89.9%
[4]
  inhibition at 50 µM: 4.85%
[5]
  inhibition of α-glucosidase: more than 50%
  IC50: 525 ± 2 µM
